The text below walks through data of ChEMBL document CHEMBL2434905, “2-Amino-6-chloro-3,4-dihydroquinazoline: A novel 5-HT3 receptor antagonist with antidepressant character” (Bioorg Med Chem Lett, 2013).

Structures are written as SMILES. The source made the active and inactive calls. The calls are words filed in the database; no cut-off is given here.

The target in assay [1] is T1, 5-hydroxytryptamine receptor 3A (Mus musculus, UniProt P23979).
T1 sequence (P23979 whole entry): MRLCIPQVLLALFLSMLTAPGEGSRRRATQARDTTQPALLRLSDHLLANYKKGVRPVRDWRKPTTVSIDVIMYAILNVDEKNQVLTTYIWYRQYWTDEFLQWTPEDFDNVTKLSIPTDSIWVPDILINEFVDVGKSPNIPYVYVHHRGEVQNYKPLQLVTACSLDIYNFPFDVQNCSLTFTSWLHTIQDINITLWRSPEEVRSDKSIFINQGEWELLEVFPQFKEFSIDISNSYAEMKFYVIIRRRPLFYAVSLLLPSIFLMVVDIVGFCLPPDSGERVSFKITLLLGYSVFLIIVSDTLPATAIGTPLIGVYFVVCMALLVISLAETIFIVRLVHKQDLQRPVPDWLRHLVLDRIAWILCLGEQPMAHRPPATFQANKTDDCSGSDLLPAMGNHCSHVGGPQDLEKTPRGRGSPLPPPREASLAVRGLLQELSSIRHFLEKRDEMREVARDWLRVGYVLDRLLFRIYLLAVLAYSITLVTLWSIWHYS
The assay can be described thus: Displacement of [3H]LY278584 from mouse 5-HT3A receptor. In general terms: Displacement assays read how much labelled ligand stays bound in the presence of the test substance.

Assay [2] relates to Mus musculus. Kind of assay: Antidepressant activity in ICR mouse assessed as immobility time at 20 mg/kg, ip by tail suspension test. It is filed as functional, organism-based. Also on record: dose 20 mg/kg.
Assay [3] concerns the target T2, 5-hydroxytryptamine receptor 3A (Homo sapiens, UniProt P46098).
T2 sequence (P46098 whole entry): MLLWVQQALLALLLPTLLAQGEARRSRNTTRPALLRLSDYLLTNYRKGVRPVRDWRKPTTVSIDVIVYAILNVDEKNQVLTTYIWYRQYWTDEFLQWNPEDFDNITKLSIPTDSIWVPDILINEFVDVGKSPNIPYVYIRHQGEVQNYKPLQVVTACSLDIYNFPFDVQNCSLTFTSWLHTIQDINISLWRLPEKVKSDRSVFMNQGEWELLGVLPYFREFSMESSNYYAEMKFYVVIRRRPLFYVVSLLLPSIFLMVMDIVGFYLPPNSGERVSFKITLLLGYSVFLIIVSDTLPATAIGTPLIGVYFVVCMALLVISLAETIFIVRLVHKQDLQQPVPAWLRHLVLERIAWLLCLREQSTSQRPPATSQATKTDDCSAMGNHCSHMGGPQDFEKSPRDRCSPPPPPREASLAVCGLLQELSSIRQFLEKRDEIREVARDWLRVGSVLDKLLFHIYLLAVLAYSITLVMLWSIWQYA
Kind of assay: Displacement of [3H]GR65630 from human 5-HT3A receptor expressed in HEK293 cells by liquid scintillation counting analysis. It is filed as cell-based.

The target in assay [4] is T2, 5-hydroxytryptamine receptor 3A. The assay can be described thus: Displacement of [3H]GR65630 from 5-HT3 receptor (unknown origin) expressed in mouse/rat NG108-15 cells after 30 mins by liquid scintillation counting analysis. It is filed as cell-based.

For `NC1=Nc2cc(Cl)ccc2CN1`, the Ki (as a rule, a dissociation constant, usually derived from enzyme kinetics or from competition with a known ligand) in assay [1] amounted to 1.97 µM.
In the case of `CNCCCN1c2ccccc2CCc2ccccc21`, the result in assay [2] was Active.
As to `CN1CCN2c3ncccc3Cc3ccccc3C2C1` (stereo unspecified) [MIRTAZAPINE], the Ki in assay [3] is 2.9 µM.
As to `NC(N)=Nc1cccc(Cl)c1`, in assay [4], the Ki was 0.032 µM.
In the case of `CNCCC(Oc1ccc(C(F)(F)F)cc1)c1ccccc1` (stereo unspecified), in assay [2], the outcome was Active.
For the compound `CN(C)CCCN1c2ccccc2CCc2ccccc21`, the outcome in assay [2] was Active.
